This is an account of results in patent US8133471B2, “CLK-peptide and SLK-peptide” (New York University, priority 2003, dated 2012).

One assay deals with GL261 glioblastoma cells. Nature of the assay: GL261 proliferation, CLK-peptide combined with ionizing radiation. The format is cell-based, murine. The settings on record: CLK-peptide 50 μg/ml + 5.0 Gy, 3 days, P<0.050, versus control. As for the experimental part: FIG. 24 CLK-Peptide Enhances Radiosensitivity of […] Glioblastoma. Percent inhibition of tumor cell proliferation was quantitated in the presence or absence of CLK-Peptide, ionizing radiation, and a combination of the two.
Microtiter wells were coated with denatured collagen type-IV (10 μg/ml). GL261 cells were resuspended in proliferation buffer containing 1% serum in the presence or absence of a sub-optimal amount of CLK-peptide or control peptide (CTW) (50 μg/ml).
The cells were added to the coated wells and allowed to incubate for 1 hour, then either untreated or irradiated with a single fraction dose of ionizing radiation (5.0 Gy). A ^60Co source (Theratron) was used to deliver a single fraction of 5 Gy. The cells, on a 30 cm^2 field, were irradiated from a distance of 80 cm with a gantry angle of 180 degrees on a solid water phantom at 0.5 cm depth.
Tumor cells were allowed to proliferate for 3 days and proliferation was quantified by measuring the relative amount of mitochondrial dehydrogenase using a WST-1 tetrazolium salt cleavage assays kit (Chemicon).

In assay [1] the test system is intact triple helical collagen type-IV. The assay can be described thus: Solid phase ELISA, labeled CLK-peptide binding to native collagen type-IV. As for the experimental part:
FIG. 15 CLK-Peptide Reacts with a Cryptic Epitope in Collagen Type-IV In Vitro. Reactivity of biotin-labeled CLK-Peptide was assessed by solid phase ELISA. Reactivity was monitored by incubation with HRP-labeled streptavidin. […] All data was corrected for nonspecific binding of HRP-labeled streptavidin only. Data bars represent the mean optical density (O.D.)±standard deviation from triplicate wells. Assays were repeated 2 to 3 times with similar results.
The CLK-peptide was labeled with HRP and used in solid phase ELISA to assess differential binding to either native or denatured collagen type-IV. Microtiter plates were coated with either native or denatured collagen type-IV and HRP-labeled CLK-peptide was allowed to bind. […] In contrast, CLK-Peptide readily bound to denatured collagen type-IV. […] To determine whether this cryptic epitope was also exposed within the ECM in vivo, biotin-labeled CLK-peptide was used to stain M21 human melanoma tumors growing in nude mice (results shown in FIGS. 16A and B and described in Example 15).

For the substance “H-CLKQNGGNFSLG-OH [CLK-peptide, NH2-C-L-K-Q-N-G-G-N-F-S-L-G-COOH]”, in the assay on GL261 glioblastoma cells, the “increase of the antiproliferative effects of a sub-optimal dose of ionizing radiation” value is “approximately 5 fold”. Besides, the “binding to intact triple helical collagen type-IV” value in assay [1] is on record as “little if any binding”.
